SMILES strings stand for the structures.

Here are results for 13 compounds from patent US12054494B2, “Compound with anticancer activity” (KYOWA KIRIN CO., LTD., priority 2018, dated 2024).

The first assay has as its system SU-DHL-4 cells. Nature of the assay: Inhibitory effect on cell viability (Cell Counting Kit-8). In kind it is cell-based. The note with it: Homo sapiens, 72 hours culture with test compound, concentration showing 90% inhibition rate of cell viability. In outline: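 IC90 corresponds to 90% loss of viability, measured as CCK-8 absorbance at 450 nm (2-3 h colour development). Compounds in 9 dilutions (0.1% DMSO) were applied for 72 h at 37° C to SU-DHL-4 lymphoma cells seeded at 2000/well in RPMI1640/10% FBS after 18-25 h preculture.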
(In general: Tetrazolium dyes change colour on reduction, which living cells bring about.)
In general, IC90 refers to the concentration at which the effect reaches the 90% level. With `CCC(=O)N1c2ccccc2[C@H](Nc2ccc(-n3cc(CNC(=O)c4ccc(C5=NCc6nnc(C)n6-c6sc(C)c(C)c65)cc4)nn3)cc2)C[C@@H]1C` [Compound 14n, N-((1-(4-(((2S,4R)-2-Methyl-1-propionyl-1,2,3,4-tetrahydroquinolin-4-yl)amino)phenyl)-1H-1,2,3-triazol-4-yl)methyl)-4-(2,3,9-trimethyl-6H-thieno[3,2-f][1,2,4]triazolo[4,3-a][1,4]diazepin-4-yl)benzamide], it took 0.05 nM to reach the 90% level (IC90). Same read-out and setting: as for `Cc1sc2c(c1C)C(c1ccc(C(=O)NCC(=O)CNC(=O)c3ccc(C4=NCc5nnc(C)n5-c5sc(C)c(C)c54)cc3)cc1)=NCc1nnc(C)n1-2` [Compound 14o, N,N′-(2-Oxopropane-1,3-diyl)bis(4-(2,3,9-trimethyl-6H-thieno[3,2-f][1,2,4]triazolo[4,3-a][1,4]diazepin-4-yl)benzamide)], the figure is 30.9 nM; as for `Cc1sc2c(c1C)C(c1ccc(C(=O)N3CCC(NC(=O)c4ccc(C5=N[C@@H](CC(=O)OC(C)(C)C)c6nnc(C)n6-c6sc(C)c(C)c65)cc4)CC3)cc1)=NCc1nnc(C)n1-2` [Compound 14p, tert-Butyl (S)-2-(2,3,9-trimethyl-4-(4-((1-(4-(2,3,9-trimethyl-6H-thieno[3,2-f][1,2,4]triazolo[4,3-a][1,4]diazepin-4-yl)benzoyl)piperidin-4-yl)carbamoyl)phenyl)-6H-thieno[3,2-f][1,2,4]triazolo[4,3-a][1,4]diazepin-6-yl)acetate], 1.27 nM. Same read-out and setting: under `CCC(=O)N1c2ccccc2[C@H](Nc2ccc(C(=O)NCc3cn(-c4ccc(C5=NCc6nnc(C)n6-c6sc(C)c(C)c65)cc4)nn3)cc2)C[C@@H]1C` [Compound 14q, 4-(((2S,4R)-2-Methyl-1-propionyl-1,2,3,4-tetrahydroquinolin-4-yl)amino)-N-((1-(4-(2,3,9-trimethyl-6H-thieno[3,2-f][1,2,4]triazolo[4,3-a][1,4]diazepin-4-yl)phenyl)-1H-1,2,3-triazol-4-yl)methyl)benzamide] stands 0.17 nM. Still for that read-out and setting: as for `CCC(=O)N1c2ccccc2[C@H](Nc2ccc(-c3cn4c(n3)CN(C(=O)c3ccc(C5=NCc6nnc(C)n6-c6sc(C)c(C)c65)cc3)CC4)cc2)C[C@@H]1C` [Compound 14r, 1-((2S,4R)-2-Methyl-4-((4-(7-(4-(2,3,9-trimethyl-6H-thieno[3,2-f][1,2,4]triazolo[4,3-a][1,4]diazepin-4-yl)benzoyl)-5,6,7,8-tetrahydroimidazo[1,2-a]pyrazin-2-yl)phenyl)amino)-3,4-dihydroquinolin-1(2H)-yl)propan-1-one], the figure is 1.47 nM; as for `CCC(=O)N1c2ccccc2[C@H](Nc2ccc(SCCNC(=O)c3ccc(C4=NCc5nnc(C)n5-c5sc(C)c(C)c54)cc3)cc2)C[C@@H]1C` [Compound 14s, N-(2-((4-(((2S,4R)-2-Methyl-1-propionyl-1,2,3,4-tetrahydroquinolin-4-yl)amino)phenyl)thio)ethyl)-4-(2,3,9-trimethyl-6H-thieno[3,2-f][1,2,4]triazolo[4,3-a][1,4]diazepin-4-yl)benzamide], 2.2 nM; as for `CCC(=O)N1c2ccccc2[C@H](Nc2ccc(-c3nnc(CNC(=O)c4ccc(Cn5c(C(=O)OCCN(C)C)cc6c5CCCC6=O)cc4)o3)cc2)C[C@@H]1C` [Compound 15b, 2-(Dimethylamino)ethyl 1-(4-(((5-(4-(((2S,4R)-2-methyl-1-propionyl-1,2,3,4-tetrahydroquinolin-4-yl)amino)phenyl)-1,3,4-oxadiazol-2-yl)methyl)carbamoyl)benzyl)-4-oxo-4,5,6,7-tetrahydro-1H-indole-2-carboxylate], 1.07 nM. On to `CCC(=O)N1c2ccccc2[C@H](Nc2ccc(-n3cc(CCNC(=O)c4ccc(Cn5c(C(=O)OCCN(C)C)cc6c5CCCC6=O)cc4)nn3)cc2)C[C@@H]1C` [Compound 15c, 2-(Dimethylamino)ethyl 1-(4-((2-(1-(4-(((2S,4R)-2-methyl-1-propionyl-1,2,3,4-tetrahydroquinolin-4-yl)amino)phenyl)-1H-1,2,3-triazol-4-yl)ethyl)carbamoyl)benzyl)-4-oxo-4,5,6,7-tetrahydro-1H-indole-2-carboxylate], for which the 90% effect level (IC90) was put at 0.3 nM. Same read-out and setting: as for `CCC(=O)N1c2ccccc2[C@H](Nc2ccc(-c3cnn(CCNC(=O)c4ccc(Cn5c(C(=O)OCCN(C)C)cc6c5CCCC6=O)cc4)c3)cc2)C[C@@H]1C` [Compound 15d, 2-(Dimethylamino)ethyl 1-(4-((2-(4-(4-(((2S,4R)-2-methyl-1-propionyl-1,2,3,4-tetrahydroquinolin-4-yl)amino)phenyl)-1H-pyrazol-1-yl)ethyl)carbamoyl)benzyl)-4-oxo-4,5,6,7-tetrahydro-1H-indole-2-carboxylate], the figure is 0.16 nM; as for `CCC(=O)N1c2ccccc2[C@H](Nc2ccc(-n3cc(CNC(=O)c4ccc(Cn5c(CC)cc6c5CCCC6=O)cc4)nn3)cc2)C[C@@H]1C` [Compound 15f, 4-((2-Ethyl-4-oxo-4,5,6,7-tetrahydro-1H-indol-1-yl)methyl)-N-((1-(4-(((2S,4R)-2-methyl-1-propionyl-1,2,3,4-tetrahydroquinolin-4-yl)amino)phenyl)-1H-1,2,3-triazol-4-yl)methyl)benzamide], 0.04 nM. Still for that read-out and setting: as for `CCC(=O)N1c2ccccc2[C@H](Nc2ccc(C(=O)NCc3cn(-c4ccc(Cn5c(CC)cc6c5CCCC6=O)cc4)nn3)cc2)C[C@@H]1C` [Compound 15h, N-((1-(4-((2-Ethyl-4-oxo-4,5,6,7-tetrahydro-1H-indol-1-yl)methyl)phenyl)-1H-1,2,3-triazol-4-yl)methyl)-4-(((2S,4R)-2-methyl-1-propionyl-1,2,3,4-tetrahydroquinolin-4-yl)amino)benzamide], the figure is 2.32 nM.

A further assay concerns MYC mRNA expression in SU-DHL-4 cells. Nature of the assay: Suppressive effect on MYC mRNA expression (qRT-PCR). The note with it: test compound 100 nmol/L, 6 hours. In kind it is cell-based. The procedure:
Suppressive Effect on MYC mRNA Expression
SU-DHL-4 cells were cultured at 37° C. using a carbon dioxide gas incubator (95% air, 5% CO2) in RPMI1640 medium in which FBS in an amount to give a final concentration of 10 vol % and PS in an amount to give a final concentration of 1 vol % were added. The cells were passaged twice a week at a volume of 20-40 mL so as to maintain a cell concentration of 1×10^6 cells/mL or less.
The cultured SU-DHL-4 cells were seeded at 6×10^5 cells/well in a transparent 6-well plate (Code No. 140675, Thermo Fisher Scientific). After seeding, the cells were precultured at 37° C. in a carbon dioxide gas incubator for 18 to 25 hours. Next, a 0.1 mmol/L DMSO solution of the test compound was prepared, diluted so that the concentration will be 200 times the final concentration in the RPMI1640 medium containing the above FBS and PS, and 1/200 volume of the diluted solution was added to each well. At this time, the final concentration of DMSO was adjusted to be 0.1 vol %. After adding the test compound, the cells were cultured at 37° C. in a carbon dioxide gas incubator for 6 hours.
Then, the cells were collected by centrifugation and used for extraction of mRNA. mRNA extraction from cells was performed using Maxwell® 16 LEV simplyRNA Purification Kits (Code No. AS1270, Promega). The mRNA recovery protocol was performed according to the manufacturer's recommended protocol attached to the kit.
0.001 mg of the recovered mRNA was converted to cDNA by SuperScript IV VILO Master Mix with ezDNase Enzyme (Code No. 11766050, Thermo Fisher Scientific). The cDNA conversion was performed, according to the manufacturer's recommended protocol attached to the kit, in 0.020 mL of the reaction solution, and GeneAmp® PCR System 9700 (Applied Biosystems) was used. The cDNA-converted sample was diluted 10-fold by adding 0.180 mL of RNase Free Water (Code No. 10977-023, Thermo Fisher Scientific) and used for quantitative real-time polymerase chain reaction (qRT-PCR). For the calibration curve of qRT-PCR, 0.08 mL of RNase Free Water was added to a cDNA sample using DMSO as a test compound for 5-fold dilution. Further, two 5-fold dilutions were prepared stepwise, and these three samples were used as the calibration curve samples.
The following reagents were used for qRT-PCR: TaqMan Gene Expression Assays, Inventoried (Primer probe: Code No. 4331182, Thermo Fisher Scientific, Assay ID: (i) MYC: Hs00153408_m1, (ii) ACTB: Hs01060665_g1, (iii) GAPDH: Hs04420697_g1, (iv) HPRT1: Hs02800695_m1); 2X TaqManR Fast Universal PCR Master Mix, no AmpEraseR UNG (Master Mix: Code No. 4367846, Thermo Fisher Scientific).
Primer probe (0.001 mL), Master Mix (0.010 mL), water (0.004 mL) and the diluted cDNA sample (0.005 mL) were mixed, and qRT-PCR analysis was performed. For qRT-PCR analysis, QuantStudio 7 Flex (Thermo Fisher Scientific) or 7500 Fast Real-Time PCR (Applied Biosystems) was used to measure in Fast mode and analyze. The expression level of the MYC gene was determined by quantifying ACTB, GAPDH, and HPRT1 as housekeeping genes and correcting by the following formula to calculate the suppression rate of (%) of MYC mRNA expression when the test compound was allowed to act at a concentration of 100 nmol/L. Corrected MYC expression=A/B • A: MYC expression level • B: Geometric mean of expression levels of ACTB, GAPDH and HPRT1
Using the corrected values, the suppression rate of MYC expression for the wells to which […] was calculated by the following formula. Suppression rate of MYC expression (%)=100−C/D×100 • C: Corrected MYC expression level in a well containing test compound • D: Corrected MYC expression level in a well to which test compound was not added
In general terms: In qPCR the cycle at which signal appears reflects the starting amount.
Turning to `CCC(=O)N1c2ccccc2[C@H](Nc2ccc(NC(=O)C#CCNC(=O)C3CCC(N[C@@H]4C[C@H](C)N(C(=O)CC)c5ccccc54)CC3)cc2)C[C@@H]1C` (relative stereo) [Compound 8g, (1R,4r)-4-(((2S*,4R*)-2-Methyl-1-propionyl-1,2,3,4-tetrahydroquinolin-4-yl)amino)-N-(4-((4-(((2S,4R)-2-methyl-1-propionyl-1,2,3,4-tetrahydroquinolin-4-yl)amino)phenyl)amino)-4-oxobut-2-yn-1-yl)cyclohexane-1-carboxamide], the “Suppression rate of MYC mRNA expression” value is reported as 96.6%. On the same count and under the same terms, as for `CCC(=O)N1c2ccccc2[C@H](N[C@H]2CC[C@H](NC(=O)C#CCNC(=O)[C@H]3CC[C@H](N[C@@H]4C[C@H](C)N(C(=O)CC)c5ccccc54)CC3)CC2)C[C@@H]1C` (relative stereo) [Compound 9d, (1R,4R)-4-(((2S*,4R*)-2-Methyl-1-propionyl-1,2,3,4-tetrahydroquinolin-4-yl)amino)-N-(4-(((1R,4R)-4-(((2S,4R)-2-methyl-1-propionyl-1,2,3,4-tetrahydroquinolin-4-yl)amino)cyclohexyl)amino)-4-oxobut-2-yn-1-yl)cyclohexane-1-carboxamide], the figure is 98.0%.
